Assay results published in US8541197B2 (priority 2006, dated 2013).

Assays:
C. elegans = conditions: worms on mutant or wild-type yeast with E. coli, treated with DPI; expected result of a planned test
Description: The worms are carefully monitored twice a day from the time the eggs are exposed to the microbial cultures up to day 4, when the Dar phenotype is clearly visible. […] At day 4, the anal swelling (or Dar) phenotype is scored for worms plated on mixed lawns of E. coli and yeast and compared to worms plated on E. coli lawns without yeast or with heat inactivated yeast.
Briefly, worms reared on mixed cultures of mutant or wild-type yeast with E. coli will be treated with DPI. Its effect on the nematode host will be observed phenotypically (using the Dar phenotype described in Preliminary studies) and biochemically (using the peroxidase assay described in Specific Aim 1B).

[1] = tested on: ROS produced by the worms; conditions: worms on mutant or wild-type yeast with E. coli, treated with DPI; expected result of a planned test
Description: a) Peroxidase enzyme activity: A commercially available assay (Amplex Red peroxidase kit, Molecular Probes) will be used to test peroxidase activity (20). Briefly, ROS produced by the worms, presumably in response to pathogenic attack, oxidize the substrate Amplex Red, to form a red fluorescent product that can be measured spectrophotometrically.
Briefly, worms reared on mixed cultures of mutant or wild-type yeast with E. coli will be treated with DPI.

Compound: O=S(=O)([O-])[O-].c1ccc2c(c1)[I+]c1ccccc1-2.c1ccc2c(c1)[I+]c1ccccc1-2 [DPI, Diphenylene iodonium sulfate]
- Dar phenotype (C. elegans): expect to observe the Dar phenotype
- peroxidase activity [1]: low peroxidase activity
